Experimental data as given in patent EP4603105A1, “PHARMACEUTICAL COMPOSITION CONTAINING CYCLIC COMPOUND HAVING SELECTIVE KRAS INHIBITORY EFFECT AGAINST HRAS AND NRAS” (CHUGAI SEIYAKU KABUSHIKI KAISHA, priority 2022, dated 2024).

Assays:
[1] = molecular target: GDP-bound NRAS wild-type protein (Homo sapiens, UniProt P01111); experiment: Binding to NRAS by surface plasmon resonance (SPR), KD and KD ratio to KRAS; details: ratio of KD for GDP-bound NRAS wild-type protein to KD for KRAS
How it was run: (§1)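 Biotinylated GDP-bound RAS was captured at about 100–300 RU. Running buffer: HBS pH 7.4, 10 mM MgCl2, 10 µM GDP, 1 mM DTT, 0.01% Tween 20, 4% DMSO.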

[2] = molecular target: GDP-bound KRAS wild-type protein (Homo sapiens, UniProt P01116); experiment: Binding to KRAS by surface plasmon resonance (SPR), dissociation constant KD; details: Single Cycle Kinetics
Sequence of GDP-bound KRAS wild-type protein (P01116 1-188 isoform P01116-2): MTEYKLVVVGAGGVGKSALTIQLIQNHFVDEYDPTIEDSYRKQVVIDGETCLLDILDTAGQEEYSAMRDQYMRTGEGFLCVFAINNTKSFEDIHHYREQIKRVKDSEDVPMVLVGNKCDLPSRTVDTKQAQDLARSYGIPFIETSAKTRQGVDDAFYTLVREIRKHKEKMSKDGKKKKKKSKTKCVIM
How it was run: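 SPR, 30°C: Avi-biotin RAS·GDP captured via Biotin CAPture (~100–300 RU); running buffer HBS pH 7.4, 1 mM DTT, 10 mM MgCl2, 0.01% Tween 20, 10 µM GDP, 4% DMSO. Single-cycle kinetics, 100 µL/min, 75 s injections; 1:1 model → KD.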

HRAS wild-type protein = HRAS wild-type protein (Homo sapiens, UniProt P01112); experiment: Binding to HRAS by surface plasmon resonance (SPR), KD and KD ratio to KRAS; details: ratio of KD for HRAS wild-type protein to KD for KRAS
Sequence of HRAS wild-type protein (P01112 whole entry): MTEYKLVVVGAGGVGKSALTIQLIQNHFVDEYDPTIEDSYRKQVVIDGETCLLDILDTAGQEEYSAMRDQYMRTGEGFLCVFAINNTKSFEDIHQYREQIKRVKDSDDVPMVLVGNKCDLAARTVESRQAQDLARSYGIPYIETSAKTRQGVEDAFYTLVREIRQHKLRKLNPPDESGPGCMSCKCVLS
How it was run: as §1

[3] = tested on: human lung cancer strain NCI-H441; experiment: NCI-H441 cell proliferation inhibitory activity (CellTiter-Glo, 4 days); type: cell-based; details: NCI-H441 cells, 4 days, read-out: NCl-H441 IC50
How it was run: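 Step one: dispense the test compound in serial DMSO dilutions. Step three: add the reagent and measure […].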

Sequence of GDP-bound NRAS wild-type protein (P01111 whole entry): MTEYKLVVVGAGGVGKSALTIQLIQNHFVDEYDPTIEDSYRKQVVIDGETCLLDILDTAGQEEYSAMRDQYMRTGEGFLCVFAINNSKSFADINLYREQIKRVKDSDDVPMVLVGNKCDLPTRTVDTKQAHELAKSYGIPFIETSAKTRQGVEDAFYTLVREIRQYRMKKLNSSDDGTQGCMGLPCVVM

Row | SMILES | NRAS /KRAS [1] | Kd [2] | HRAS /KRAS (HRAS wild-type protein) | IC50 [3]
1 | CCC[C@H]1C(=O)N[C@@H]([C@@H](C)CC)C(=O)N(C2CC2)CC(=O)N(C)[C@H]2C/C=C\CCN(C2=O)[C@@H](Cc2ccc(C)cc2)C(=O)N(C)CC(=O)N[C@@H](CCc2ccc(C(F)(F)F)c(OC)c2)C(=O)N2C[C@H](OCC)C[C@H]2C(=O)OC2(CCC2)C(=O)N(C)[C@@H](C2CCCC2)C(=O)N(C)[C@H](C(=O)N(C)C)CC(=O)N1C [PP3387] | A (a compound having 10 or more and less than 20 is denoted as A) | 0.56 nM | B (a compound having 3 or more and less than 10 is denoted as B) | 11.1 nM
2 | C#CC[C@H]1C(=O)N[C@@H]([C@@H](C)CC)C(=O)N2CCC[C@H]2C(=O)N(C)[C@H]2C/C=C\CCN(C2=O)[C@@H](Cc2ccc(C)cc2)C(=O)N(C)CC(=O)N[C@@H](CCc2ccc(C(F)(F)F)c(OC)c2)C(=O)N2C[C@H](OCC)C[C@H]2C(=O)OC2(CCC2)C(=O)N(C)[C@@H](C2CCCC2)C(=O)N(C)[C@H](C(=O)N(C)C)CC(=O)N1C [PP3389] | A (a compound having 10 or more and less than 20 is denoted as A) | 0.38 nM | B (a compound having 3 or more and less than 10 is denoted as B) | 7.2 nM
3 | C#CC[C@H]1C(=O)N[C@@H]([C@@H](C)CC)C(=O)N(C2CC2)CC(=O)N(C)[C@H]2C/C=C\CCN(C2=O)[C@@H](Cc2ccc(C)cc2)C(=O)N(C)CC(=O)N[C@@H](CCc2ccc(C(F)(F)F)c(OC)c2)C(=O)N2C[C@H](OCC)C[C@H]2C(=O)OC2(CCC2)C(=O)N(C)[C@@H](C2CCCC2)C(=O)N(C)[C@H](C(=O)N(C)C)CC(=O)N1C [PP3390] | A (a compound having 10 or more and less than 20 is denoted as A) | 0.69 nM | B (a compound having 3 or more and less than 10 is denoted as B) | 22.8 nM
4 | C#CC[C@H]1C(=O)N[C@@H]([C@@H](C)CC)C(=O)N(C)CC(=O)N(C)[C@H]2C/C=C\CCN(C2=O)[C@@H](Cc2ccc(C)cc2)C(=O)N(C)CC(=O)N[C@@H](CCc2ccc(C(F)(F)F)c(OC)c2)C(=O)N2C[C@H](OCC)C[C@H]2C(=O)OC2(CCC2)C(=O)N(C)[C@@H](C2CCCC2)C(=O)N(C)[C@H](C(=O)N(C)C)CC(=O)N1C [PP3391] | B (a compound having 3 or more and less than 10 is denoted as B) | 0.46 nM | B (a compound having 3 or more and less than 10 is denoted as B) | 9.8 nM
5 | CCO[C@@H]1C[C@H]2C(=O)OC3(CCC3)C(=O)N(C)[C@@H](C3CCCC3)C(=O)N(C)[C@H](C(=O)N(C)C)CC(=O)N(C)[C@@H]([C@@H](C)OC)C(=O)N[C@@H]([C@@H](C)CC)C(=O)N3CCC[C@H]3C(=O)N(C)[C@H]3C/C=C\CCN(C3=O)[C@@H](Cc3ccc(C)cc3)C(=O)N(C)CC(=O)N[C@@H](CCc3ccc(C(F)(F)F)c(OC)c3)C(=O)N2C1 [PP3392] | A (a compound having 10 or more and less than 20 is denoted as A) | 0.64 nM | B (a compound having 3 or more and less than 10 is denoted as B) | 11.5 nM
6 | CCO[C@@H]1C[C@H]2C(=O)OC3(CCC3)C(=O)N(C)[C@@H](C3CCCC3)C(=O)N(C)[C@H](C(=O)N(C)C)CC(=O)N(C)[C@@H]([C@@H](C)OC)C(=O)N[C@@H]([C@@H](C)CC)C(=O)N(C3CC3)CC(=O)N(C)[C@H]3C/C=C\CCN(C3=O)[C@@H](Cc3ccc(C)cc3)C(=O)N(C)CC(=O)N[C@@H](CCc3ccc(C(F)(F)F)c(OC)c3)C(=O)N2C1 [PP3393] | A (a compound having 10 or more and less than 20 is denoted as A) | 0.51 nM | B (a compound having 3 or more and less than 10 is denoted as B) | 4.7 nM
7 | CCO[C@@H]1C[C@H]2C(=O)OC3(CCC3)C(=O)N(C)[C@@H](C3CCCC3)C(=O)N(C)[C@H](C(=O)N(C)C)CC(=O)N(C)[C@@H]([C@H](C)OC)C(=O)N[C@@H]([C@@H](C)CC)C(=O)N3CCC[C@H]3C(=O)N(C)[C@H]3C/C=C\CCN(C3=O)[C@@H](Cc3ccc(C)cc3)C(=O)N(C)CC(=O)N[C@@H](CCc3ccc(C(F)(F)F)c(OC)c3)C(=O)N2C1 [PP3395] | A (a compound having 10 or more and less than 20 is denoted as A) | 0.82 nM | B (a compound having 3 or more and less than 10 is denoted as B) | 11 nM
8 | CCO[C@@H]1C[C@H]2C(=O)OC3(CCC3)C(=O)N(C)[C@@H](C3CCCC3)C(=O)N(C)[C@H](C(=O)N(C)C)CC(=O)N(C)[C@@H]([C@H](C)OC)C(=O)N[C@@H]([C@@H](C)CC)C(=O)N(C3CC3)CC(=O)N(C)[C@H]3C/C=C\CCN(C3=O)[C@@H](Cc3ccc(C)cc3)C(=O)N(C)CC(=O)N[C@@H](CCc3ccc(C(F)(F)F)c(OC)c3)C(=O)N2C1 [PP3396] | A (a compound having 10 or more and less than 20 is denoted as A) | 1.4 nM | B (a compound having 3 or more and less than 10 is denoted as B) | 12.9 nM
9 | CCO[C@@H]1C[C@H]2C(=O)OC3(CCC3)C(=O)N(C)[C@@H](C3CCCC3)C(=O)N(C)[C@H](C(=O)N(C)C)CC(=O)N(C)[C@@H]([C@H](C)OC)C(=O)N[C@@H]([C@@H](C)CC)C(=O)N(C)CC(=O)N(C)[C@H]3C/C=C\CCN(C3=O)[C@@H](Cc3ccc(C)cc3)C(=O)N(C)CC(=O)N[C@@H](CCc3ccc(C(F)(F)F)c(OC)c3)C(=O)N2C1 [PP3397] | A (a compound having 10 or more and less than 20 is denoted as A) | 0.28 nM | B (a compound having 3 or more and less than 10 is denoted as B) | 4.3 nM
10 | CCCO[C@@H]1C[C@H]2C(=O)NC3(CC(C)(C)C3)C(=O)N(C)[C@@H](C3CCCC3)C(=O)N(C)[C@H](C(=O)N(C)CC)CC(=O)N(C)[C@@H](COCC)C(=O)N[C@@H]([C@@H](C)CC)C(=O)N3C[C@@H](F)C[C@H]3C(=O)N(C)[C@H]3C/C=C\CCN(C3=O)[C@@H](Cc3ccc(C(F)(F)F)cc3)C(=O)N(C)CC(=O)N[C@@H](CCc3cc(F)c(C(F)(F)F)c(F)c3)C(=O)N2C1 [PP3401] | A (a compound having 10 or more and less than 20 is denoted as A) | 0.32 nM | A (a compound having 10 or more and less than 20 is denoted as A) | 10.9 nM
11 | CCC[C@H]1C(=O)N[C@@H]([C@@H](C)CC)C(=O)N(C)CC(=O)N(C)[C@H]2C/C=C\CCN(C2=O)[C@@H](Cc2ccc(C(F)(F)F)cc2)C(=O)N(C)CC(=O)N[C@@H](CCc2cc(F)c(C(F)(F)F)c(F)c2)C(=O)N2CC3(CC3)C[C@H]2C(=O)NC2(CCC2)C(=O)N(C)[C@@H](C(CC)CC)C(=O)N(C)[C@H](C(=O)N(C)C)CC(=O)N1C [PP3402] | AA (a compound having 20 or more is denoted as AA) | 0.31 nM | B (a compound having 3 or more and less than 10 is denoted as B) | 10.1 nM
12 | CCCO[C@@H]1C[C@H]2C(=O)NC3(CC(C)(C)C3)C(=O)N(C)[C@@H](C3CCCC3)C(=O)N(C)[C@H](C(=O)N(C)CC)CC(=O)N(C)[C@@H](COCC)C(=O)N[C@@H]([C@@H](C)CC)C(=O)N(C3CC3)CC(=O)N(C)[C@H]3C/C=C\CCN(C3=O)[C@@H](Cc3ccc(C(F)(F)F)cc3)C(=O)N(C)CC(=O)N[C@@H](CCc3ccc(C(F)(F)F)c(Cl)c3)C(=O)N2C1 [PP3403] | A (a compound having 10 or more and less than 20 is denoted as A) | 0.81 nM | A (a compound having 10 or more and less than 20 is denoted as A) | 15.2 nM
13 | CCC[C@H]1C(=O)N[C@@H]([C@@H](C)CC)C(=O)N(C)CC(=O)N(C)[C@H]2C/C=C\CCN(C2=O)[C@@H](Cc2ccc(C(F)(F)F)cc2)C(=O)N(C)CC(=O)N[C@@H](CCc2cc(F)c(C(F)(F)F)c(F)c2)C(=O)N2CC3(CC3)C[C@H]2C(=O)NC2(CCC2)C(=O)N(C)[C@@H]([C@@H](C)CC)C(=O)N(C)[C@H](C(=O)N(C)C)CC(=O)N1C [PP3404] | AA (a compound having 20 or more is denoted as AA) | 0.2 nM | A (a compound having 10 or more and less than 20 is denoted as A) | 12.8 nM
14 | CCCO[C@@H]1C[C@H]2C(=O)NC3(CC(C)(C)C3)C(=O)N(C)[C@@H](C3CCCC3)C(=O)N(C)[C@H](C(=O)N(C)CC)CC(=O)N(C)[C@@H](COCC)C(=O)N[C@@H]([C@@H](C)CC)C(=O)N3CCC[C@H]3C(=O)N(C)[C@H]3C/C=C\CCN(C3=O)[C@@H](Cc3ccc(C(F)(F)F)cc3)C(=O)N(C)CC(=O)N[C@@H](CCc3ccc(C(F)(F)F)c(Cl)c3)C(=O)N2C1 [PP3405] | A (a compound having 10 or more and less than 20 is denoted as A) | 1.5 nM | A (a compound having 10 or more and less than 20 is denoted as A) | 40.5 nM
